Assay results from US20160318957A1, “CRYSTAL (1) OF PYRAZINO[2,1-c][1,2,4]TRIAZINE COMPOUND” (PRISM PHARMA CO., LTD., priority 2013, published 2016).

What was measured:
Format in all cases: physicochemical
[1] = Evaluation of solid stability (impurity content by HPLC after preservation); conditions: for impurity content (%): HPLC 226 nm
Description: The solid obtained in Example 1 or Comparative Example 1 was preserved for 3 months under the following 3 kinds of preservation conditions. The absorbance at wavelength 226 nm was measured by high performance liquid chromatography (HPLC), and the content of impurity contained in the crystal was measured every other month.
From the peak area of the obtained chromatogram, a value obtained by dividing the total area of respective peaks other than the peak showing compound 1, by the total area of all the obtained peaks, from the peaks contained in the above-mentioned solid, was taken as impurity content (%), and is shown in Table 5.

[2] = Hygroscopicity evaluation by dynamic water adsorption measuring apparatus; conditions: 25° C., relative humidity range of 35-75% RH
Description: The hygroscopicity of crystal A obtained in Example 1 was evaluated by a dynamic water adsorption measuring apparatus. A sample mounting part of the apparatus was maintained at 25° C., and the relative humidity (RH) was set stepwisely within the range of 5-95% RH. The humidity was controlled by changing the relative flow of 0% RH dry nitrogen and 100% RH humidified nitrogen. The sample weight was confirmed at for 2 min intervals by a micro balance, and the humidity was sequentially changed at the time point when the weight shift range for 5 min was below 0.01%.

[3] = Evaluation of thermal stability by X-ray-DSC
Description: Using X-ray diffraction-differential scanning simultaneous calorimetry apparatus (X-ray-DSC), whether the crystal form of crystal A obtained in Example 1 changes upon heating was observed.
When the temperature was around 90° C., the weight of crystal A decreased, and the powder X-ray diffraction pattern changed clearly.

[4] = Heating of crystal in an oven; conditions: oven at 50° C. overnight
Description: First, an amorphous form of compound 1 is explained. Compound 1 can be produced by synthesize according to the method described in patent document 1.

[5] = preserved at 40° C./75% RH, 1 month later
[6] = preserved at 40° C./75% RH, 2 months later
[7] = preserved at 40° C./75% RH, 3 months later
[8] = preserved at 60° C., 1 month later
[9] = preserved at 60° C., 2 months later
[10] = preserved at 60° C., 3 months later
[11] = preserved at −20° C., 1 month later
[12] = preserved at −20° C., 2 months later
[13] = preserved at −20° C., 3 months later
[14] = heated from 40° C. to 100° C. at 1° C./min

| Structure (SMILES) | increase in the impurity content as compared to preservation at −20° C. ([1]; 40° C., 75% RH, 3 months later) | increase in the impurity content as compared to preservation at −20° C. ([1]; 60° C., 3 months later) | solid stability compared with amorphous form ([1]; high temperature conditions and high humidity conditions, 3 months) | impurity content (%) [1, 5] [%] | impurity content (%) [1, 6] [%] | impurity content (%) [1, 7] [%] | impurity content (%) [1, 8] [%] | impurity content (%) [1, 9] [%] | impurity content (%) [1, 10] [%] | impurity content (%) [1, 11] [%] | impurity content (%) [1, 12] [%] | impurity content (%) [1, 13] [%] | hygroscopicity [2] | weight change at the maximum [2] | powder X-ray diffraction pattern at the endothermic peak (desorption of hydrated water) ([3]; 43° C.-48° C., heated at 1° C./min) | temperature at which weight decreased and powder X-ray diffraction pattern changed clearly [3, 14] | thermal stability [3, 14] | change of solid form on heating [4] |
| --- | --- | --- | --- | --- | --- | --- | --- | --- | --- | --- | --- | --- | --- | --- | --- | --- | --- | --- |
| C[C@H]1C2N(C(=O)CN(C)N2C(=O)NCc2ccccc2)[C@@H](Cc2ccc(OP(=O)(O)O)cc2)C(=O)N1Cc1cccc2cccnc12 (stereo partly drawn) [Example 1, 4-(((6S,9S)-1-(benzylcarbamoyl)-2,9-dimethyl-4,7-dioxo-8-(quinolin-8-ylmethyl)octahydro-1H-pyrazino[2,1-c][1,2,4]triazin-6-yl)methyl)phenyl dihydrogen phosphate] | about 1.6% | not more than 0.5% | more stable than the amorphous form of Comparative Example 1 | 0.65 | 1.02 | 1.80 | 0.53 | 0.59 | 0.72 | 0.24 | 0.17 | 0.24 | low hygroscopicity | about 2.5% | did not change | around 90 °C | thermally stable | – |
| C[C@H]1C2N(C(=O)CN(C)N2C(=O)NCc2ccccc2)[C@@H](Cc2ccc(OP(=O)(O)O)cc2)C(=O)N1Cc1cccc2cccnc12 (stereo partly drawn) [Comparative Example 1, 4-(((6S,9S)-1-(benzylcarbamoyl)-2,9-dimethyl-4,7-dioxo-8-(quinolin-8-ylmethyl)octahydro-1H-pyrazino[2,1-c][1,2,4]triazin-6-yl)methyl)phenyl dihydrogen phosphate] | about 4% | not less than 1.1% | – | 3.35 | 4.62 | 6.51 | 3.10 | 3.41 | 3.68 | 2.46 | 2.60 | 2.57 | – | – | – | – | – | – |
| C[C@H]1C2N(C(=O)CN(C)N2C(=O)NCc2ccccc2)[C@@H](Cc2ccc(OP(=O)(O)O)cc2)C(=O)N1Cc1cccc2cccnc12 (stereo partly drawn) [Example 2, 4-(((6S,9S)-1-(benzylcarbamoyl)-2,9-dimethyl-4,7-dioxo-8-(quinolin-8-ylmethyl)octahydro-1H-pyrazino[2,1-c][1,2,4]triazin-6-yl)methyl)phenyl dihydrogen phosphate] | – | – | – | – | – | – | – | – | – | – | – | – | – | – | – | – | – | changes into an amorphous form |
